Values of other authors as cited in patent US20180100201A1, “TUMOR AND MICROENVIRONMENT GENE EXPRESSION, COMPOSITIONS OF MATTER AND METHODS OF USE THEREOF” (The Broad Institute Inc., priority 2015, published 2018).

System: Factor VII
Conditions: LNP siRNA systems containing these lipids

Molecule	gene silencing potency in hepatocytes in vivo, series
CCCCC/C=C\C/C=C\CCCCCCCC(=O)OCC(CN(C)C)OC(=O)CCCCCCC/C=C\C/C=C\CCCCC (stereo not shown) [DLinDAP, 1,2-dilineoyl-3-dimethylammonium-propane]	DLinKC2-DMA>DLinKDMA>DLinDMA>>DLinDAP
1,2-dilinoleyloxy-keto-N,N-dimethyl-3-aminopropane [DLinKDMA]	DLinKC2-DMA>DLinKDMA>DLinDMA>>DLinDAP
CCCCC/C=C\C/C=C\CCCCCCCCOCC(CN(C)C)OCCCCCCCC/C=C\C/C=C\CCCCC (stereo not shown) [DLinDMA, 1,2-dilinoleyloxy-3-N,N-dimethylaminopropane]	DLinKC2-DMA>DLinKDMA>DLinDMA>>DLinDAP
CCCCC/C=C\C/C=C\CCCCCCCCC1(CCCCCCCC/C=C\C/C=C\CCCCC)OCC(CCN(C)C)O1 (stereo not shown) [DLinKC2-DMA, 1,2-dilinoleyl-4-(2-dimethylaminoethyl)-[1,3]-dioxolane]	DLinKC2-DMA>DLinKDMA>DLinDMA>>DLinDAP
